Patent US20190119284A1, “ErbB Inhibitors and Uses Thereof” (The Regents of the University of California, priority 2016, published 2019)

Tests used:
[1] = target: T1, EGFR gatekeeper to methionine mutant in NCI-H1975 cells (Homo sapiens, UniProt P00533, L858R/T790M); assay: EGFR signaling and proliferation in NCI-H1975 cells; type: cell-based
T1 construct: mutation of the EGFR gatekeeper to methionine in NCI-H1975 cells; endogenous in cells; host or cells: NCI-H1975

BT-474 cells = assay: 72 h proliferation of BT-474 cells in the presence or absence of NRG; type: cell-based; settings: BT-474, 72 h dose response +/- NRG
Protocol: FIGS. 1A-1E. NRG rescues HER2 over-expressing cancer cells from HER2 inhibitors. […] FIG 1B: Same experiment as depicted in FIG. 1A, but with the inhibitor TAK-285. FIG. 1C: The ability of NRG to rescue SK-BR-3 and BT-474 cell proliferation from HER2 inhibitors is dose dependent. Cells were treated with 1 μM of the indicated inhibitor in the presence of varying concentrations of NRG, and proliferation was read out after 72 h (mean±SD, n=3). […] FIG. 1E: Cartoon schematic of the EGFR family kinase domain asymmetric dimer. The C-terminal domain of the ‘activator’ kinase (right) interacts with the N-terminal portion of the ‘receiver’ kinase (left). This interaction stabilizes the active conformation of the receiver kinase identified by the ‘in’ conformation of the receiver kinase's α-C helix and the ordered extension of the activation loop.
FIGS. 5A-5D. […] FIG. 5A: Chemical structure of compound 3 (also referred to herein as compound 178). FIG. 5B: Proliferation curves for compound 3 against the Ba/F3 cell line panel (mean±SD, n=3). […] FIG. 5D: The same assay in FIG. 2A was performed with compound 3 in SK-BR-3 cells.

CHL-1 cells = assay: growth of CHL-1 cells over 96 h (IncuCyte Zoom confluence); type: cell-based; settings: CHL-1, 96 h, compared with lapatinib
[2] = target: T2, 2YF-L755S/3wt + NRG Ba/F3 cells (Homo sapiens, UniProt P04626, L755S/Y1005F/Y1023F/Y1112F/Y1127F/Y1139F/Y1196F/Y1221F/Y1222F/Y1248F, cells depend on it); assay: Ba/F3 proliferation assay, 2YF-L755S/3wt + NRG; type: cell-based; settings: Table 4; ± S.D., n = 2; read-out: IC50, 2YF-L755S/3wt + NRG
T2 construct: reported HER2 oncogenic mutants in the HER2YF construct
Protocol: (§1) For the 2YF/3wt cells, the parental cells were first transduced with HER3 according to the protocol above and were then spun down at 500×g for 5 min and re-suspended in media supplemented with 10 ng/mL IL-3 and 3 μg/mL puromycin (Invitrogen). Cells were maintained in these conditions for seven days, passaging as required. After seven days the cells were spun down, washed with fresh media, and then used for a subsequent round of transduction according to the protocol above with HER2YF virus. […] The cells were maintained in these conditions for seven days, passaging as required. After seven days the cells were spun down, washed with fresh media, and then suspended in media supplemented with 10 ng/mL of NRG. Cells were maintained in these conditions for seven days to select for a NRG dependent population of 2YF/3wt Ba/F3 cells that were then maintained as described above. The same protocol was used for the 2YF-L755S/3wt, 2YF-YVMA/3wt, and 2YF-VC/3wt cell lines using the indicated constructs.
(§2) Proliferation Assays. […] The following day media was changed to fresh media that contained either DMSO or the indicated concentration of drug plus NRG (50 ng/mL final concentration) as indicated. […] For all normalized assays, proliferation was normalized to the DMSO control condition. […]

[3] = target: T3, 2YF-VC/3wt + NRG Ba/F3 cells (Homo sapiens, UniProt P04626, DELINS776-776VC/Y1005F/Y1023F/Y1112F/Y1127F/Y1139F/Y1196F/Y1221F/Y1222F/Y1248F, cells depend on it); assay: Ba/F3 proliferation assay, 2YF-VC/3wt + NRG; type: cell-based; settings: Table 4; ± S.D., n = 2; read-out: IC50, 2YF-VC/3wt + NRG
T3 construct: reported HER2 oncogenic mutants in the HER2YF construct
Protocol: as §1, §2

JAK2 = JAK2 (Homo sapiens, UniProt O60674); assay: Nanosyn in vitro kinase profiling: JAK2; type: biochemical; settings: compound at 1 μM
JAK1 = JAK1 (Homo sapiens, UniProt P23458); assay: Nanosyn in vitro kinase profiling: JAK1; type: biochemical; settings: compound at 1 μM
PI3K-ALPHA = PI3K-ALPHA (Homo sapiens, UniProt P42336); assay: Nanosyn in vitro kinase profiling: PI3K-ALPHA; type: biochemical; settings: compound at 1 μM
[4] = test system: wt or T787M HER3 kinase domain; assay: Thermofluor stabilization of HER3 kinase domain; type: binding; settings: HER3 T787M vs wt kinase domain
Text: FIGS. 4A-4F. Compound 2 is a selective Type I inhibitor for HER2. […] FIG. 4B: Thermal stabilization of the HER3 kinase domain by either compound 2 or ATP as determined by Thermofluor (mean±SD, n=3). FIGS. 4C-4D: The crystal structure of either erlotinib (FIG. 4C) or 2 (FIG. 4D) bound to EGFR V924R. The kinase domain in complex with compound 2 has been stabilized in the active confirmation by drug binding, despite the mutation—as evidenced by the ordered extension of the activation loop and the inward positioning of the α-C helix.
FIGS. 12A-12B. […] FIG. 12A. […] FIG. 12B. Stabilization of either wt or T787M HER3 kinase domain by compound 2 compared to DMSO as determined by thermofluor (mean value±SD, n=2).

BLK = BLK (Homo sapiens, UniProt P51451); assay: Nanosyn in vitro kinase profiling: BLK; type: biochemical
Protocol: (§3) This was confirmed by in vitro profiling against a panel of kinases, with compound 2 only showing potent inhibition of EGFR and Ab1 (Table 2).
(§4) In vitro Kinome Screen. In vitro profiling of compound 2 at 100 nM was conducted by Nanosyn.

TRKC = TRKC (Homo sapiens, UniProt Q16288); assay: Nanosyn in vitro kinase profiling: TRKC; type: biochemical
Protocol: as §3, §4

AKT1 = AKT1 (Homo sapiens, UniProt P31749); assay: Nanosyn in vitro kinase profiling: AKT1; type: biochemical
Protocol: as §3, §4

TSSK1 = TSSK1 (Homo sapiens, UniProt Q9BXA7); assay: Nanosyn in vitro kinase profiling: TSSK1; type: biochemical
Protocol: as §3, §4

Sequence of TRKC (Q16288 32-839): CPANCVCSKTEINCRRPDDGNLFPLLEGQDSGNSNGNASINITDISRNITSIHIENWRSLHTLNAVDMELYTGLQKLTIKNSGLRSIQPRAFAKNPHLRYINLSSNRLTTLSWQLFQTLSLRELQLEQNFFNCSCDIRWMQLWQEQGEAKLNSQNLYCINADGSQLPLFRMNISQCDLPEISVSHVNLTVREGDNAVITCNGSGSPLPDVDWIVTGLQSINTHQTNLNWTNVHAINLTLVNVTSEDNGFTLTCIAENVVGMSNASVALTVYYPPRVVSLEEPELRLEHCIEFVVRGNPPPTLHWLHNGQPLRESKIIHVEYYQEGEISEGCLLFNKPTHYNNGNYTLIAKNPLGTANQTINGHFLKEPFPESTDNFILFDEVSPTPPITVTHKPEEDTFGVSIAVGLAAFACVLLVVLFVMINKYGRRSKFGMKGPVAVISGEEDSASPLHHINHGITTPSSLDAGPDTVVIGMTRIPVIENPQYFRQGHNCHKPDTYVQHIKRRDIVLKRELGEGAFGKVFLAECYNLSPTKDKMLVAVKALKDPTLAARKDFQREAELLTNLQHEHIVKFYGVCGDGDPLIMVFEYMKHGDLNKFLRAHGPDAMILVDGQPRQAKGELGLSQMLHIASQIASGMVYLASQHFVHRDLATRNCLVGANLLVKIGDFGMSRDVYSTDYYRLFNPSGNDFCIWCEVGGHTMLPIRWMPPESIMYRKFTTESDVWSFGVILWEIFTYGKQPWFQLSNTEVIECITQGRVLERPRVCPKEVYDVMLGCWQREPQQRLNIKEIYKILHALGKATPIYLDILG
Sequence of BLK (P51451 whole entry): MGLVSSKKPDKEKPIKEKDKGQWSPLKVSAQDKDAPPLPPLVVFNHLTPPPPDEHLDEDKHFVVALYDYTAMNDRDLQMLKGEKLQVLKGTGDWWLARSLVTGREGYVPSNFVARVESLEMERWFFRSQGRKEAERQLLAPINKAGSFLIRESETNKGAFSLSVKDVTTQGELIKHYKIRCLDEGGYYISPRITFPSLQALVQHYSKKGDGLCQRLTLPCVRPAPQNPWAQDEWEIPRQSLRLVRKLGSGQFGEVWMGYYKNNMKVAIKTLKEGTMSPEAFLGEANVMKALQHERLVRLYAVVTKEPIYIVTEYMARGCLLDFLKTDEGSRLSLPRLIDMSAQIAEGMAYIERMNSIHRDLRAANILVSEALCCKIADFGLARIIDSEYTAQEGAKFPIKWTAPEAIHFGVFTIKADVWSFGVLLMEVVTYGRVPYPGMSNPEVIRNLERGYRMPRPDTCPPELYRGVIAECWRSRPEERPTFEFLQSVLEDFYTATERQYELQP
T1 sequence (P00533 25-1210 T790M/L858R): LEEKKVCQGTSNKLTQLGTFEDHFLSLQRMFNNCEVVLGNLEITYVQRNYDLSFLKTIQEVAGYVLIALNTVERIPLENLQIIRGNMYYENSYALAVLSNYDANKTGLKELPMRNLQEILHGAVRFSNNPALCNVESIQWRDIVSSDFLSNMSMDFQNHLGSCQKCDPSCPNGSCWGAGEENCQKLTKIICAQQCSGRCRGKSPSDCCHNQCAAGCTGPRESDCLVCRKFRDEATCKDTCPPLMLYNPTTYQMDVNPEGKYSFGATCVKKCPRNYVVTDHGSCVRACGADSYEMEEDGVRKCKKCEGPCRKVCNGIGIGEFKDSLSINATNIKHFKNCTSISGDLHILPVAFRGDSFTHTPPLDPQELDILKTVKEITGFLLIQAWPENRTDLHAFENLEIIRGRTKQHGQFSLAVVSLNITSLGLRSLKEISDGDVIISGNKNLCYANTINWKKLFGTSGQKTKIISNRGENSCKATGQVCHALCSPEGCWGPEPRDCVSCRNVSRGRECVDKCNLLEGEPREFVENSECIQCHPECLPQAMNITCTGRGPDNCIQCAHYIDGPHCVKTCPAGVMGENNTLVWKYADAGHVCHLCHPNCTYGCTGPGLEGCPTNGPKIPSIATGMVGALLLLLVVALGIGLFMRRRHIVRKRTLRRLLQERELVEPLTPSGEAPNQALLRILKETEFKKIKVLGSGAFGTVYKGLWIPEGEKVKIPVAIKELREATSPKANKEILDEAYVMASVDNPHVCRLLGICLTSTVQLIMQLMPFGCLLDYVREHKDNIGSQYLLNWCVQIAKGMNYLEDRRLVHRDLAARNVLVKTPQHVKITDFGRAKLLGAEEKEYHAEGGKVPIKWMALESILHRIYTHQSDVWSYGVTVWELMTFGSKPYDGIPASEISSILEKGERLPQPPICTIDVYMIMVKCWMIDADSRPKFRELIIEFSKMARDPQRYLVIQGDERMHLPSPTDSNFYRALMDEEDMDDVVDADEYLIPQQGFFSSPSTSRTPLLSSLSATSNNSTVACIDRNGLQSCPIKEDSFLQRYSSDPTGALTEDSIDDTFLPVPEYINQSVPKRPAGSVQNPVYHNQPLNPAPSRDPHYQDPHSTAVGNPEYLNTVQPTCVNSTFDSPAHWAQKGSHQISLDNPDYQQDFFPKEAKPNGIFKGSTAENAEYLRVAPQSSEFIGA
Sequence of TSSK1 (Q9BXA7 whole entry, species assumed): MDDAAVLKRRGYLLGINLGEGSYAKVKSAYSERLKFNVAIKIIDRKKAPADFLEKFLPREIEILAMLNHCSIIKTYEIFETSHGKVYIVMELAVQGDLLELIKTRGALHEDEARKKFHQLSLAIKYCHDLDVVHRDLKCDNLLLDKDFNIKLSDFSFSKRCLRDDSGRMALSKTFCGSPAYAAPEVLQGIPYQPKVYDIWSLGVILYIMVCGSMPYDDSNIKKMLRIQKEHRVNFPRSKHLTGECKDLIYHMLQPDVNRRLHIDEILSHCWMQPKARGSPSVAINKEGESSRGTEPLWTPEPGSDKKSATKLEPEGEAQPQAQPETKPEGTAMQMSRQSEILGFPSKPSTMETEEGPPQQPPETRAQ
Sequence of AKT1 (P31749 whole entry): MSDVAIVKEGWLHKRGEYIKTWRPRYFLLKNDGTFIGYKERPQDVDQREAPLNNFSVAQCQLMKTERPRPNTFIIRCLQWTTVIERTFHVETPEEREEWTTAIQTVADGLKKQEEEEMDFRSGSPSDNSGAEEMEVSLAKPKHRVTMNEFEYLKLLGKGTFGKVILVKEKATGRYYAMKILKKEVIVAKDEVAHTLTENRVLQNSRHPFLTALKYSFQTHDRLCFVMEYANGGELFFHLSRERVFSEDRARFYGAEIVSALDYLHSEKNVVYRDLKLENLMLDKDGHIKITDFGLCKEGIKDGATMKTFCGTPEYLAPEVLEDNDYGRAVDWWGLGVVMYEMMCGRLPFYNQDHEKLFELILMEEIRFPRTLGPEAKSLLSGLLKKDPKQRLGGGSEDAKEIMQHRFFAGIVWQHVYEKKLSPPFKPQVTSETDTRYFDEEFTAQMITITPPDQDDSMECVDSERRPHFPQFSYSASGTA
T3 sequence (P04626 with tags, fused parts or gaps with the stated changes): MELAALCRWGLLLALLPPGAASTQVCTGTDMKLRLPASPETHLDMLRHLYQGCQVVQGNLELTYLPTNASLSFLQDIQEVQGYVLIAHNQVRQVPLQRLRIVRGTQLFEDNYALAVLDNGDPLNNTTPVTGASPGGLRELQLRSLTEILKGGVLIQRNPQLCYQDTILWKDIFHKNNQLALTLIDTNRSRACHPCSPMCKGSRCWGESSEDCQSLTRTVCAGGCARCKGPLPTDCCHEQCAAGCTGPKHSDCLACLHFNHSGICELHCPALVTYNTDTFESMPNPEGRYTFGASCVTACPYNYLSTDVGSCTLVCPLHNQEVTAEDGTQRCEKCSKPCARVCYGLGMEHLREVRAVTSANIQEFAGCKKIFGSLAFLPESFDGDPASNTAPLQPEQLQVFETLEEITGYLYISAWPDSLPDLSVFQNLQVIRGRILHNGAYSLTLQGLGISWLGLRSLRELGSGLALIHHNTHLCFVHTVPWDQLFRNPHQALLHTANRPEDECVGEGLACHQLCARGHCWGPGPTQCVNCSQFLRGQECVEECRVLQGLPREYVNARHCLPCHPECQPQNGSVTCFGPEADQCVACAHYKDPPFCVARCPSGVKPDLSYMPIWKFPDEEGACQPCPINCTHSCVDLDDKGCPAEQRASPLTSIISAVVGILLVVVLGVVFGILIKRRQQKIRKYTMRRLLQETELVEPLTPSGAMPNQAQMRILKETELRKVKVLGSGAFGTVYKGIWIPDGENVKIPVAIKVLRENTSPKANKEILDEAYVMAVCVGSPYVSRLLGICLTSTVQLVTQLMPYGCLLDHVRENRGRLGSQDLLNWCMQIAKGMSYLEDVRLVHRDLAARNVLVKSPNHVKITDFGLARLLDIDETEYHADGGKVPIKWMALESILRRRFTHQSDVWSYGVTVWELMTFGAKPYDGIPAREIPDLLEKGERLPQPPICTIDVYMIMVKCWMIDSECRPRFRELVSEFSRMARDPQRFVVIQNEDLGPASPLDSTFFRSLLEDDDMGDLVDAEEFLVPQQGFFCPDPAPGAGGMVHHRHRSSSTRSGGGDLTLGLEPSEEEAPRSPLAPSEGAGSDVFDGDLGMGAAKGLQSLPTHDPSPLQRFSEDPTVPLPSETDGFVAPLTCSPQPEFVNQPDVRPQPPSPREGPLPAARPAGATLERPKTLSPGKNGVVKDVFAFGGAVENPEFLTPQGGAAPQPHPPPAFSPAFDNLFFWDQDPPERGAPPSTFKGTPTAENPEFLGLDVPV

p-845 site inhibition at concentrations ([1]; EGFR gatekeeper methionine)	GI50 [2]	GI50 [3]	inhibition at 1 µM (JAK2)	inhibition at 1 µM (JAK1)	inhibition at 1 µM (PI3K-ALPHA)	effect of gatekeeper mutation on binding affinity [4]	inhibition at 0.1 µM (BLK; compound at 100 nM)	inhibition at 1 µM (BLK; compound at 1 μM)	inhibition at 0.1 µM (TRKC; compound at 100 nM)	inhibition at 1 µM (TRKC; compound at 1 μM)	inhibition at 0.1 µM (AKT1; compound at 100 nM)	inhibition at 1 µM (AKT1; compound at 1 μM)	inhibition at 0.1 µM (TSSK1; compound at 100 nM)	inhibition at 1 µM (TSSK1; compound at 1 μM)	Compound	effect of EGFR gatekeeper methionine mutation on inhibition ([1]; signaling and proliferation)	sensitivity of proliferation inhibition to NRG (BT-474 cells)	reduction of cell growth (confluence) (CHL-1 cells)
less than 1 μM	0.0382 ± 0.0029 µM	0.0077 ± 0.001 µM	83%	52%	6%	–	–	–	–	–	–	–	–	–	COc1ccc(-c2ccoc2)cc1Nc1ncnc2[nH]cc(-c3cc[nH]n3)c12 [compound 3, N-(5-(furan-3-yl)-2-methoxyphenyl)-5-(1H-pyrazol-3-yl)-7H-pyrrolo[2,3-d]pyrimidin-4-amine]	caused a shift in the ability of compound 3 to inhibit both signaling and proliferation	insensitive to the presence of NRG	more effective at reducing the growth of CHL-1 cells
–	–	–	–	–	–	reduces the binding affinity	59.9%	90.4%	15.7%	46.9%	14.3%	33%	0.665%	-3.06%	COc1ccc(-c2ccco2)cc1Nc1ncnc2[nH]nc(-c3ccco3)c12 [compound 2, 3-(furan-2-yl)-N-(5-(furan-2-yl)-2-methoxyphenyl)-1H-pyrazolo[3,4-d]pyrimidin-4-amine]	–	–	–
